# Assay results published in US8415342B2, “Besifloxacin ophthalmic composition for the treatment or control of infection” (Bausch & Lomb Incorporated, priority 2008, dated 2013).
# Like-named read-outs stand apart in the source and are kept apart here.
# Legend:
# Format in all cases: cell-based
# Morganella morganii = experiment: MIC, CLSI broth microdilution, clinical isolates; settings: Morganella morganii (N = 51)
# Klebsiella oxytoca = experiment: MIC, CLSI broth microdilution, clinical isolates; settings: Klebsiella oxytoca (N = 50)
# Citrobacter koseri = experiment: MIC, CLSI broth microdilution, clinical isolates; settings: Citrobacter koseri (N = 100)
# Anaerobic Bacteria = experiment: MIC against anaerobic bacteria (Table 7); settings: for % S (percent of susceptible isolates): CLSI breakpoints
# [1] = test system: Staphylococcus lugdunensis; experiment: MIC, CLSI broth microdilution, clinical isolates; settings: Staphylococcus lugdunensis (N = 15)
# Moraxella catarrhalis = experiment: MIC, CLSI broth microdilution, clinical isolates; settings: Moraxella catarrhalis (N = 101)
# [2] = test system: Staphylococcus saprophyticus; experiment: MIC, CLSI broth microdilution, clinical isolates; settings: Staphylococcus saprophyticus (N = 101)
# Staphylococcus hominis = experiment: MIC, CLSI broth microdilution, clinical isolates; settings: Staphylococcus hominis (N = 50)
# Staphylococcus aureus = experiment: MIC, CLSI broth microdilution, clinical isolates; settings: for MIC50 / MIC90: Staphylococcus aureus
# [3] = test system: Staphylococcus epidermidis; experiment: MIC, CLSI broth microdilution, clinical isolates; settings: for MIC50: Staphylococcus epidermidis
# [4] = test system: Staphylococcus haemolyticus; experiment: MIC, CLSI broth microdilution, clinical isolates; settings: Staphylococcus haemolyticus (N = 101)
# Staphylococcus warneri = experiment: MIC, CLSI broth microdilution, clinical isolates; settings: Staphylococcus warneri (N = 50)
# Streptococcus pneumoniae = experiment: MIC, CLSI broth microdilution, clinical isolates
# [5] = test system: Lancefield group C, F, G streptococci; experiment: MIC, CLSI broth microdilution, clinical isolates; settings: G streptococci (N = 50)
# Streptococcus pyogenes = experiment: MIC, CLSI broth microdilution, clinical isolates; settings: Streptococcus pyogenes (N = 101)
# Viridans streptococci = experiment: MIC, CLSI broth microdilution, clinical isolates; settings: Viridans streptococci (N = 156)
# Streptococcus agalactiae = experiment: MIC, CLSI broth microdilution, clinical isolates; settings: Streptococcus agalactiae (N = 100)
# [6] = Bacteroides fragilis, Bacteroides fragilis (N = 20), read-out: MIC50
# [7] = Bacteroides fragilis, Bacteroides fragilis (N = 20), read-out: MIC90
# [8] = Clostridium perfringens (N = 21)
# [9] = Clostridium perfringens, Clostridium perfringens (N = 21)
# [10] = Fusobacterium spp. (N = 21), read-out: MIC50
# [11] = Fusobacterium spp. (N = 21), read-out: MIC90
# [12] = Propionibacterium acnes (N = 21)
# [13] = Staphylococcus aureus (CNS, N = 16)
# [14] = Staphylococcus aureus (CS, N = 14)
# [15] = Staphylococcus aureus (MSSA, N = 19)
# [16] = Staphylococcus aureus (all phenotypes, N = 30)
# [17] = MRSA, Staphylococcus aureus (MRSA, N = 11)
# [18] = MSSA, Staphylococcus aureus (MSSA, N = 19)
# [19] = Staphylococcus epidermidis (CNS, N = 6)
# [20] = Staphylococcus epidermidis (CS, N = 9)
# [21] = Staphylococcus epidermidis (MRSE, N = 9)
# [22] = Staphylococcus epidermidis (MSSE, N = 6)
# [23] = Staphylococcus epidermidis (all phenotypes, N = 15)
# [24] = Streptococcus pneumoniae (PISP, N = 2)
# [25] = Streptococcus pneumoniae (PSSP, N = 31)
# [26] = Streptococcus pneumoniae (all phenotypes, N = 35)
compound,measurement,setting,value
CC(C)(O/N=C(\C(=O)N[C@@H]1C(=O)N2C(C(=O)[O-])=C(C[n+]3ccccc3)CS[C@H]12)c1csc(N)n1)C(=O)O [Ceftazidime],% S,Morganella morganii,82.4%
same,MIC50,Morganella morganii,0.12 µg/mL
same,MIC90,Morganella morganii,16 µg/mL
same,% S,Klebsiella oxytoca,100.0%
same,MIC50,Klebsiella oxytoca,0.12 µg/mL
same,MIC90,Klebsiella oxytoca,0.5 µg/mL
same,MIC Range,Klebsiella oxytoca,0.03 to 1 µg/mL
same,% S,Citrobacter koseri,100.0%
same,MIC50,Citrobacter koseri,0.12 µg/mL
same,MIC90,Citrobacter koseri,0.5 µg/mL
same,MIC Range,Citrobacter koseri,0.06 to 4 µg/mL
CCC[C@@H]1C[C@@H](C(=O)N[C@@H]([C@H]2O[C@H](SC)[C@H](O)[C@@H](O)[C@H]2O)[C@H](C)Cl)N(C)C1 [Clindamycin],MIC50,Anaerobic Bacteria,≤ 0.03 µg/mL
same,MIC90,Anaerobic Bacteria,> 8 µg/mL
same,% S (percent of susceptible isolates),Anaerobic Bacteria; Bacteroides fragilis (N = 20),65.0%
same,MIC50,Anaerobic Bacteria; [6],2 µg/mL
same,MIC90,Anaerobic Bacteria; [7],> 8 µg/mL
same,MIC Range,Anaerobic Bacteria; [8],0.06 to 4 µg/mL
same,% S (percent of susceptible isolates),Anaerobic Bacteria; [8],85.7%
same,MIC50,Anaerobic Bacteria; [9],2 µg/mL
same,MIC90,Anaerobic Bacteria; [9],4 µg/mL
same,MIC50,Anaerobic Bacteria; Cutibacterium acnes,0.06 µg/mL
same,MIC90,Anaerobic Bacteria; Cutibacterium acnes,0.12 µg/mL
same,MIC Range,Anaerobic Bacteria; Fusobacterium spp. (N = 21),0.06 to 8 µg/mL
same,% S (percent of susceptible isolates),Anaerobic Bacteria; Fusobacterium spp. (N = 21),95.2%
same,MIC50,Anaerobic Bacteria; [10],0.06 µg/mL
same,MIC90,Anaerobic Bacteria; [11],2 µg/mL
same,% S (percent of susceptible isolates),Anaerobic Bacteria; Prevotella spp. (N = 20),85.0%
same,MIC Range,Anaerobic Bacteria; [12],≦0.03-2 μg/mL
same,% S (percent of susceptible isolates),Anaerobic Bacteria; [12],100.0%
Cc1ncc([N+](=O)[O-])n1CCO [Metronidazole],MIC50,Anaerobic Bacteria,4 µg/mL
same,MIC90,Anaerobic Bacteria,4 µg/mL
same,MIC Range,Anaerobic Bacteria; Bacteroides fragilis (N = 20),2-2 μg/mL
same,% S (percent of susceptible isolates),Anaerobic Bacteria; Bacteroides fragilis (N = 20),100.0%
same,MIC50,Anaerobic Bacteria; [6],2 µg/mL
same,MIC90,Anaerobic Bacteria; [7],2 µg/mL
same,MIC Range,Anaerobic Bacteria; [8],1 to 4 µg/mL
same,% S (percent of susceptible isolates),Anaerobic Bacteria; [8],100.0%
same,MIC50,Anaerobic Bacteria; [9],2 µg/mL
same,MIC90,Anaerobic Bacteria; [9],4 µg/mL
same,MIC50,Anaerobic Bacteria; Cutibacterium acnes,> 16 µg/mL
same,MIC90,Anaerobic Bacteria; Cutibacterium acnes,> 16 µg/mL
same,MIC Range,Anaerobic Bacteria; Fusobacterium spp. (N = 21),≦0.12-2 μg/mL
same,% S (percent of susceptible isolates),Anaerobic Bacteria; Fusobacterium spp. (N = 21),100.0%
same,MIC50,Anaerobic Bacteria; [10],0.25 µg/mL
same,MIC90,Anaerobic Bacteria; [11],1 µg/mL
same,MIC Range,Anaerobic Bacteria; Prevotella spp. (N = 20),0.25 to 8 µg/mL
same,% S (percent of susceptible isolates),Anaerobic Bacteria; Prevotella spp. (N = 20),100.0%
same,% S (percent of susceptible isolates),Anaerobic Bacteria; [12],0.0%
Cc1onc(-c2ccccc2)c1C(=O)N[C@@H]1C(=O)N2[C@@H]1SC(C)(C)[C@@H]2C(=O)O [Oxacillin],% S,[1],60.0%
same,MIC50,[1],0.5 µg/mL
same,MIC90,[1],> 8 µg/mL
same,MIC50,Moraxella catarrhalis,4 µg/mL
same,MIC90,Moraxella catarrhalis,8 µg/mL
same,% S,[2],9.9%
same,MIC50,[2],0.5 µg/mL
same,MIC90,[2],1 µg/mL
same,% S,Staphylococcus hominis,16.0%
same,MIC50,Staphylococcus hominis,> 8 µg/mL
same,MIC90,Staphylococcus hominis,> 8 µg/mL
same,% S,Staphylococcus aureus; [13],50.0%
same,% S,Staphylococcus aureus; [14],78.6%
same,% S,"Staphylococcus aureus; Staphylococcus aureus (MRSA, N = 11)",0.0%
same,% S,Staphylococcus aureus; [15],100.0%
same,MIC Range,Staphylococcus aureus; [15],0.12 to 0.5 µg/mL
same,% S,Staphylococcus aureus; [16],63.3%
same,MIC50,Staphylococcus aureus; [17],> 8 µg/mL
same,MIC90,Staphylococcus aureus; [17],> 8 µg/mL
same,MIC50,Staphylococcus aureus; [18],0.25 µg/mL
same,MIC90,Staphylococcus aureus; [18],0.5 µg/mL
same,MIC50,Staphylococcus aureus; [13],0.5 µg/mL
same,MIC90,Staphylococcus aureus; [13],> 8 µg/mL
same,MIC50,Staphylococcus aureus; [14],0.25 µg/mL
same,MIC90,Staphylococcus aureus; [14],> 8 µg/mL
same,MIC50,Staphylococcus aureus; [16],0.25 µg/mL
same,MIC90,Staphylococcus aureus; [16],> 8 µg/mL
same,% S,[3]; [19],50.0%
same,MIC Range,[3]; [19],0.12 to 4 µg/mL
same,% S,[3]; [20],55.6%
same,MIC Range,[3]; [20],≦0.06-2 μg/mL
same,% S,[3]; [21],0.0%
same,MIC Range,[3]; [21],1 to 4 µg/mL
same,% S,[3]; [22],100.0%
same,MIC Range,[3]; [22],≦0.06-0.12 μg/mL
same,% S,[3]; [23],40.0%
same,MIC90,[3]; [23],2 µg/mL
same,MIC Range,[3]; [23],≦0.06-4 μg/mL
same,MIC50,"[3]; MRSE, Staphylococcus epidermidis (MRSE, N = 9)",1 µg/mL
same,MIC50,[3]; [19],1 µg/mL
same,MIC50,[3]; [20],0.12 µg/mL
same,MIC50,[3]; [22],≤ 0.06 µg/mL
same,MIC50,[3]; [23],1 µg/mL
same,% S,[4],31.7%
same,MIC50,[4],> 8 µg/mL
same,MIC90,[4],> 8 µg/mL
same,% S,Staphylococcus warneri,46.0%
same,MIC50,Staphylococcus warneri,0.5 µg/mL
same,MIC90,Staphylococcus warneri,> 8 µg/mL
Penicillin,% S,Streptococcus pneumoniae; [24],0.0%
same,MIC Range,Streptococcus pneumoniae; [24],4-4 μg/mL
same,% S,"Streptococcus pneumoniae; Streptococcus pneumoniae (PRSP, N = 2)",0.0%
same,% S,Streptococcus pneumoniae; [25],100.0%
same,MIC50,Streptococcus pneumoniae; [25],≦0.015 μg/mL
same,MIC90,Streptococcus pneumoniae; [25],0.25 µg/mL
same,MIC Range,Streptococcus pneumoniae; [25],≦0.015-0.5 μg/mL
same,% S,Streptococcus pneumoniae; [26],88.6%
same,MIC50,Streptococcus pneumoniae; [26],≦0.015 μg/mL
same,MIC90,Streptococcus pneumoniae; [26],4 µg/mL
same,% S,[5],100.0%
same,MIC50,[5],≦0.015 μg/mL
same,MIC90,[5],0.06 µg/mL
same,MIC Range,[5],≦0.015-0.06 μg/mL
same,% S,Streptococcus pyogenes,100.0%
same,MIC50,Streptococcus pyogenes,≦0.015 μg/mL
same,MIC90,Streptococcus pyogenes,≦0.015 μg/mL
same,MIC Range,Streptococcus pyogenes,≦0.015-0.06 μg/mL
same,% S,Viridans streptococci,76.3%
same,MIC50,Viridans streptococci,0.06 µg/mL
same,MIC90,Viridans streptococci,1 µg/mL
same,% S,Streptococcus agalactiae,100.0%
same,MIC50,Streptococcus agalactiae,0.03 µg/mL
same,MIC90,Streptococcus agalactiae,0.06 µg/mL
same,MIC Range,Streptococcus agalactiae,≦0.015-0.06 μg/mL
